One assay has as its system SK-HEP1. Nature of the assay: Cytotoxicity against human SKHEP1 cells after 72 hrs by sulforhodamine B assay. The assay is classed as functional, cell-based. For orientation: Sulforhodamine B stains cellular protein and so reports cell mass.
The next assay has as its system Micrococcus luteus. Nature of the assay: Antibacterial activity against Micrococcus luteus IFC 12708 measured after 24 hrs. The assay is classed as functional. The note with it: IFC 12708, 24 h.
For the next assay, the system named is Bacillus spizizenii. Nature of the assay: Antibacterial activity against Bacillus subtilis ATCC 6633 measured after 24 hrs. It counts as functional. As to conditions: ATCC 6633, 24 h.
The test system of a further assay is Aspergillus fumigatus. Nature of the assay: Antifungal activity against Aspergillus fumigatus HIC 6094 measured after 48 to 72 hrs. The assay is classed as functional.
Another assay concerns Staphylococcus aureus. Nature of the assay: Antibacterial activity against Staphylococcus aureus ATCC 6538P measured after 24 hrs. The assay is classed as functional.
Assay [1] concerns Trichophyton mentagrophytes. Nature of the assay: Antifungal activity against Trichophyton mentagrophytes IFO 40996 measured after 48 to 72 hrs. It counts as functional.
The subject of another assay is Escherichia coli. Nature of the assay: Antibacterial activity against Escherichia coli ATCC 25922 measured after 24 hrs. It counts as functional. The note with it: ATCC 25922, 24 h.
The subject of assay [2] is A549. Nature of the assay: cells. The note with it: Homo sapiens, A549, 72 h.
Description: (§1) Cytotoxicity against human A549 cells after 72 hrs by sulforhodamine B assay
In another assay the test system is Proteus vulgaris. Nature of the assay: Antibacterial activity against Proteus vulgaris ATCC 3851 measured after 24 hrs. It counts as functional. The note with it: ATCC 3851, 24 h.
The next assay has as its system Trichophyton rubrum. Nature of the assay: Antifungal activity against Trichophyton rubrum IFO 9185 measured after 48 to 72 hrs. It counts as functional.
The subject of the next assay is SNU-638. Nature of the assay: Cytotoxicity against human SNU638 cells after 72 hrs by sulforhodamine B assay. It counts as functional, cell-based.
For another assay, the system named is K562. Nature of the assay: Cytotoxicity against human K562 cells after 72 hrs by sulforhodamine B assay. The assay is classed as functional, cell-based.
In the next assay the test system is MDA-MB-231. Nature of the assay: Cytotoxicity against human MDA-MB-231 cells after 72 hrs by sulforhodamine B assay. The assay is classed as functional, cell-based.
The subject of a further assay is Candida albicans. Nature of the assay: Antifungal activity against Candida albicans ATCC 10231 measured after 48 to 72 hrs. It counts as functional.
A further assay concerns HCT-116. Nature of the assay: Cytotoxicity against human HCT116 cells after 72 hrs by sulforhodamine B assay. It counts as functional, cell-based.
The subject of another assay is Salmonella typhimurium. Nature of the assay: Antibacterial activity against Salmonella typhimurium ATCC 14028 measured after 24 hrs. It counts as functional, Salmonella enterica subsp. enterica serovar Typhimurium. The note with it: Salmonella enterica, ATCC 14028, 24 h.
Assay [3] concerns the target Sodium/potassium-transporting ATPase. Nature of the assay: Inhibition of potassium-activated sodium/potassium ATPase in human placenta using 3-O-methylfluorescein phosphate as substrate measured for 90 secs by fluorescence assay.
Assay [4] is described as follows: Inhibition of recombinant bacterial sortase A using Dabcyl-QALPETGEE-Edans as substrate measured after 1 hr by fluorescence assay. On the set-up: species or system Bacteria.
Assay [5] has as its system A549.
Description: as §1

Molecules are shown by their SMILES. Where a SMILES comes first, the peptide text is derived from it.

The term IC50 denotes the point on the concentration scale where inhibition reaches its midpoint. In general, MIC refers to the least concentration at which growth counts as inhibited.

Consider `CC[C@H](C)[C@@H]1NC(=O)[C@@H]2CCCN2C(=O)[C@H](Cc2ccccc2)NC(=O)[C@@H]2CCCN2C(=O)[C@H](Cc2ccc(O)cc2)NC(=O)[C@@H]2CCCN2C(=O)[C@H]([C@@H](C)CC)NC1=O` [PHAKELLISTATIN 2] (HELM PEPTIDE1{F.P.I.I.P.Y.P}$PEPTIDE1,PEPTIDE1,1:R1-7:R2$$$V2.0), for which the half-maximal inhibitory concentration (IC50) with SK-HEP1 (Homo sapiens, SK-HEP1, 72 h) is 0.77 µM; with A549 [2], 0.66 µM; in the assay with SNU-638 (Homo sapiens, SNU-638, 72 h) it was 1.6 µM; in the assay with K562 (Homo sapiens, K562, 72 h), 3.2 µM; in the assay on MDA-MB-231 (Homo sapiens, MDA-MB-231, 72 h), 1.3 µM; with HCT-116 (Homo sapiens, HCT-116, 72 h) it was 0.71 µM. In addition, the IC50 in assay [3] and in [4] was over 100 µM throughout. Moreover, the MIC (against Micrococcus luteus; in the assay on Bacillus spizizenii; with Aspergillus fumigatus; with Staphylococcus aureus; in assay [1]; against Escherichia coli) was over 128 µM in each case. The minimal inhibitory concentration (MIC) in the assay on Proteus vulgaris, in the assay with Trichophyton rubrum, in the assay on Candida albicans and against Salmonella typhimurium was over 128 µM in each case.
Take `CC[C@H](C)[C@@H]1NC(=O)[C@H](Cc2ccccc2)NC(=O)[C@@H]2CCCN2C(=O)[C@H](Cc2ccccc2)NC(=O)[C@@H]2CCCN2C(=O)[C@H](CCC(N)=O)NC(=O)[C@@H]2CCCN2C(=O)[C@H](Cc2ccccc2)NC1=O` [PHAKELLI STATIN 11] (HELM PEPTIDE1{F.I.F.P.Q.P.F.P}$PEPTIDE1,PEPTIDE1,1:R1-8:R2$$$V2.0): the half-maximal inhibitory concentration (IC50) is 1.7 µM with SK-HEP1 (Homo sapiens, SK-HEP1, 72 h); 2.8 µM with A549 [2]; 6.9 µM in the assay on SNU-638 (Homo sapiens, SNU-638, 72 h); 5.6 µM with K562 (Homo sapiens, K562, 72 h); 3.2 µM in the assay with MDA-MB-231 (Homo sapiens, MDA-MB-231, 72 h); 1.6 µM with HCT-116 (Homo sapiens, HCT-116, 72 h). Also, the half-inhibitory concentration (IC50) in assay [3] and in assay [4] was over 100 µM in each case. Further, the MIC (with Micrococcus luteus; against Bacillus spizizenii; with Aspergillus fumigatus; in the assay on Staphylococcus aureus; in assay [1]; against Escherichia coli) was over 128 µM throughout. The MIC with Proteus vulgaris, with Trichophyton rubrum, against Candida albicans and with Salmonella typhimurium was over 128 µM throughout.
With `CC[C@H](C)[C@@H]1NC(=O)[C@H](Cc2ccc(O)cc2)NC(=O)[C@@H]2CCCN2C(=O)[C@@H]2CCCN2C(=O)[C@H](CC(C)C)NC(=O)[C@H](CCC(=O)O)NC(=O)[C@H](Cc2ccccc2)NC(=O)[C@H](CC[S+](C)[O-])NC(=O)[C@@H]2CCCN2C(=O)[C@@H]2CCCN2C1=O` (single isomer, unassigned; Epimer-1), the half-inhibitory concentration (IC50) in the assay with SK-HEP1 (sk-hep1) came to 0.041 µM; in the assay on SNU-638 (snu-638), 0.16 µM; with K562 (k562), 0.17 µM; in the assay with MDA-MB-231 (mda-mb-231) it was 0.4 µM; in the assay on HCT-116 (hct-116) it was 0.14 µM; in the assay on A549 [5] it was 0.19 µM. Besides, the IC50 in assay [3] and in assay [4] was over 100 µM each time. Also, the minimum inhibitory concentration (MIC) (against Micrococcus luteus; in the assay with Bacillus spizizenii; in the assay on Aspergillus fumigatus; in the assay on Staphylococcus aureus; in assay [1]; in the assay on Escherichia coli) was over 128 µM each time. Also, the MIC with Proteus vulgaris, in the assay with Trichophyton rubrum, against Candida albicans and in the assay with Salmonella typhimurium was over 128 µM throughout.
In the case of `CC[C@H](C)[C@@H]1NC(=O)[C@@H]2CCCN2C(=O)[C@H](Cc2ccc(O)cc2)NC(=O)[C@@H]2CCCN2C(=O)[C@H]([C@@H](C)CC)NC(=O)[C@@H]2CCCN2C(=O)[C@H](Cc2ccccc2)NC1=O` (HELM PEPTIDE1{F.P.I.P.Y.P.I}$PEPTIDE1,PEPTIDE1,1:R1-7:R2$$$V2.0), the IC50 came out at 7.7 µM in the assay on SK-HEP1 (Homo sapiens, SK-HEP1, 72 h); 6.7 µM in the assay on A549 [2]; 37 µM in the assay with SNU-638 (Homo sapiens, SNU-638, 72 h); 33 µM with K562 (Homo sapiens, K562, 72 h); 9.1 µM in the assay on MDA-MB-231 (Homo sapiens, MDA-MB-231, 72 h); 3.9 µM in the assay on HCT-116 (Homo sapiens, HCT-116, 72 h). The IC50 in [3] and in assay [4] was over 100 µM throughout. Also, the MIC (in the assay with Micrococcus luteus; against Bacillus spizizenii; in the assay on Aspergillus fumigatus; in the assay with Staphylococcus aureus; in [1]; against Escherichia coli) was over 128 µM in each case. For the same compound, the MIC in the assay on Proteus vulgaris, against Trichophyton rubrum, in the assay with Candida albicans and against Salmonella typhimurium was over 128 µM throughout.
Regarding `CC[C@H](C)[C@@H]1NC(=O)[C@H](Cc2ccc(O)cc2)NC(=O)[C@@H]2CCCN2C(=O)[C@@H]2CCCN2C(=O)[C@H](CC(C)C)NC(=O)[C@H](CCC(=O)O)NC(=O)[C@H](Cc2ccccc2)NC(=O)[C@H](CC[S+](C)[O-])NC(=O)[C@@H]2CCCN2C(=O)[C@@H]2CCCN2C1=O` (single isomer, unassigned; epimer 2), the concentration for half-maximal inhibition (IC50) with SK-HEP1 (sk-hep1) was 0.014 µM; in the assay with SNU-638 (snu-638), 0.01 µM; in the assay on K562 (k562), 0.021 µM; with MDA-MB-231 (Homo sapiens, MDA-MB-231, 72 h), 0.35 µM; in the assay on HCT-116 (hct-116), 0.011 µM; in the assay on A549 [5] it was 0.023 µM.

The values above are taken from ChEMBL document CHEMBL4145614, “Cyclopeptides from the Sponge Stylissa flabelliformis” (J Nat Prod, 2018).
